Holding throughout (assay): NCI tumour cell line growth inhibition, 48 h
In assay [1] the test system is LOX IMVI melanoma.
Assay [2] has as its system T-47D breast.
Assay [3] concerns OVCAR-3 ovarian.
For assay [4], the system named is KM12 colon.
Assay [5] relates to ACHN renal.
Assay [6] relates to HCT-116 colon.
Assay [7] concerns MCF7 breast.
Assay [8] has as its system K-562 leukemia.
Assay [9] concerns NCI/ADR-RES ovarian.
The subject of assay [10] is RXF 393 renal.

Structures are written as SMILES.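 Cultured in 96-well plates, cells were exposed to test compound for 48 hours across five concentrations. TGI denotes the concentration required for complete inhibition of growth.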

`NNC(=S)NCCNC(=S)NN`: the TGI in assay [1], in assay [2], in assay [3], in assay [4], in assay [5] and in [6] was over 100 µM in each case.

For the compound `CC(C)(C)OC(=O)CN1CCNCCN(CC(=O)OC(C)(C)C)CCNCC1`, the TGI in [1], in assay [3], in assay [7], in [4], in assay [5] and in assay [8] was over 100 µM in each case. For the same compound, the TGI in assay [9], in assay [10] and in assay [6] was over 100 µM in each case.

Consider `S=c1[nH]n2c(CCCCCCCCc3nnc4sc(=S)[nH]n34)nnc2s1`, for which the TGI in [2], in assay [3], in assay [7], in assay [4], in assay [5] and in [8] was over 100 µM each time. For the same compound, the TGI in [9] and in assay [6] was over 100 µM throughout.

As for `O=C(N=c1ccc2nc(=O)[nH]n(O)c-2c1)C(F)(F)F`, the TGI in assay [1], in assay [2], in assay [3], in assay [7], in assay [4] and in assay [5] was over 100 µM in each case. Further, the TGI in assay [8], in assay [9] and in [6] was over 100 µM each time.

With `O=C(O)c1cnc(-n2[nH]c3c(c2=O)CCCC3)[nH]c1=O`, the TGI in assay [2], in assay [4], in assay [5], in assay [8], in [9] and in [6] was over 100 µM in each case.

For `Nc1[nH]nc2nc3ccccc3nc12`, the TGI in assay [1], in assay [3], in assay [7], in assay [5], in assay [8] and in [9] was over 100 µM in each case. Moreover, the TGI in [10] is 87.9 µM; in [6], over 100 µM.

Turning to `CC(C)=CCC/C(C)=C/COc1c2ccoc2cc2oc(=O)ccc12`, the TGI in [1] is 46.4 µM; in assay [2], over 100 µM; in [3], 57.6 µM; in [7], 61.4 µM; in assay [4], over 100 µM; in assay [5], 83.8 µM. Also, the TGI in [8] is over 100 µM; in [9], over 100 µM; in assay [6], 85.4 µM.

`NC(CSSCC(N)=NCC12CC3CC(CC(C3)C1)C2)=NCC12CC3CC(CC(C3)C1)C2`: the TGI in assay [2] is over 100 µM; in assay [3] it was 35.6 µM; in assay [7], over 100 µM; in [4], 29 µM; in [5] it was 26.6 µM; in assay [8], 27.2 µM. Moreover, the TGI in assay [9] is 33.8 µM; in assay [10], over 100 µM; in [6], 80.9 µM.

For `O=C(c1ccc(Cl)cc1)N(C(=S)N1CCN(c2ccccn2)CC1)C1CCCCC1`, the TGI in [1], in assay [3], in assay [4], in assay [5], in assay [8] and in [10] was over 100 µM throughout. The same compound had a TGI in assay [6] of over 100 µM.

Regarding `CCOC(=O)/C(=C/c1ccc(C(=O)OC)cc1)N(CC)CC`, the TGI is over 100 µM in assay [1]; 60 µM in [3]; over 100 µM in assay [4]; over 100 µM in assay [5]; 82.7 µM in [8]; over 100 µM in assay [6].

Turning to `O=C(CSc1nc(-c2ccccc2)c(-c2ccccc2)[nH]1)N/N=C/c1ccc(O)cc1`, the TGI in assay [1] is 43 µM; in [3], 48.4 µM; in assay [4], 55.4 µM; in assay [5], 55.9 µM; in assay [8], over 100 µM; in [10], 61.4 µM. This compound also gave a TGI in assay [6] of 63.2 µM.

Consider `C/C=C1\CN(C(=O)OC(C)(C)C)C1C(=O)OC(C)(C)C` (centres undefined), for which the TGI in assay [1], in [3], in assay [7], in assay [5], in assay [8] and in [9] was over 100 µM in each case. The compound further gave a TGI in assay [6] of over 100 µM.

For `N=c1c2c(=S)n(-c3ccccc3)c(=S)n(-c3ccccc3)c2nc(SCCN2CCCC2)n1-c1ccccc1`, the TGI in assay [1] was 3.46 µM; in assay [2], 8.44 µM; in assay [3] it was 3.38 µM; in assay [4], 11.6 µM; in assay [5] it was 3.26 µM; in assay [8] it was 3.62 µM. Also, the results for the TGI in assay [9], in [10] and in [6] were 42.1 µM, 2.94 µM and 4.43 µM, respectively.

`N#C/C(=C/c1ccc2c(c1)OCO2)C(=O)c1ccccc1`: the TGI in [3], in assay [4], in assay [5], in assay [8] and in assay [6] was over 100 µM each time.

In the case of `CCOC(=O)NC(OC)(C(F)(F)F)C(F)(F)F`, the TGI in assay [1], in [3], in assay [7], in [5], in assay [8] and in assay [9] was over 100 µM in each case. Also, the TGI in [10] and in [6] was over 100 µM in each case.

As to `OCCN(/N=C\c1ccc2ccccc2c1)C1=NCCN1`, the TGI in [1] was 30.6 µM; in assay [2], over 100 µM; in assay [3], over 100 µM; in [7], over 100 µM; in assay [4], over 100 µM; in assay [5], over 100 µM. The figures for the TGI in assay [8], in assay [10] and in assay [6] were 30.4 µM, 36.1 µM and 79.9 µM, respectively.

As to `CCOC(=O)C(Cc1c[nH]c2cc([N+](=O)[O-])ccc12)NS(=O)(=O)c1ccc2ccccc2c1` (centres undefined), the TGI in assay [1] turned out to be 31.6 µM; in assay [3], 31.5 µM; in [4] it was 30.8 µM; in [5], 57.9 µM; in assay [8] it was 39.1 µM; in [10] it was 37.8 µM. In [6], the TGI came to 30.9 µM.
